Test results reported in US8119657B2, “Enantiomeric compositions of 2-amino-1-(2-isopropylpyrazolo[1,5-α]pyridin-3-yl)propan-1-one and related methods” (MediciNova, Inc., priority 2009, dated 2012).
“Also recorded” adds a separate entry of the source. Marks after values point to notes of the source that are not given here.

Legend:
[1] = In vivo interconversion of enantiomers in rats dosed with enantiomerically pure (S)-AV1013; set-up: species or system rat; settings: rats dosed with (S)-AV1013 of 99% enantiomeric excess, LLOQ=5 ng/mL
[2] = system: rat chronic constriction injury model of neuropathic pain; assay: Rat chronic constriction injury model of neuropathic pain (von Frey mechanical allodynia); format: in vivo; settings: rat CCI, oral 25 mg/kg, 2 hours post-dosing, 25 mg/kg
Text: The (S)- and the (R)-enantiomer of AV1013 were each evaluated in a rat chronic constriction injury model of neuropathic pain (see, Ledeboer et. al., Neuron Glia Biology, (2006), p 279-291), to determine whether differences in their activity could be observed.
To induce allodynia, male Sprague-Dawley rats underwent chronic constriction injury (CCI) to the sciatic nerve as described by Bennett and Xie, Pain 1988; 33(1):87-107. The plantar surface of the hind paws was stimulated with von Frey filaments (Stoelting) to induce a withdrawal response by blinded personnel. The bending force of fiber required to induce a 50% withdrawal response was calculated following CCI surgery (pre-dosing baseline).
Allodynic rats (N=5-6), received an oral administration of (S)-AV1013 (25 mg/kg), AV1013-R (100 mg/kg) or vehicle. Two hours post-dosing, 50% paw withdrawal threshold was determined by blinded testers using von Frey filaments. The 50% withdrawal threshold prior to CCI surgery, pre-dosing (10 days post-surgery), and 2 hours post-dosing are plotted in FIG. 3.

formalin paw model = assay: Inflammatory pain model (formalin paw model) in mice; format: in vivo; settings: for % Change from Control / Licking Score (Mean +/− SEM): mice
Description: The model employed is described in detail by Wheeler-Aceto et al (Psychopharmacology, 104, p 35-44, (1991)). Briefly, mice were given an intraplantar injection of 5% formalin (25 μl) into the posterior left paw. […] Mice were briefly observed at 1 minute intervals between 15 and 50 minutes after the injection of formalin and the number of times mice were observed licking the injected paw was recorded. 10 mice were studied in each group. The test was performed blind.
AV1013-S was evaluated at 3 doses (10, 25 and 50 mg/kg), administered p.o. 60 minutes before the test (i.e. 45 minutes before formalin), and compared with a vehicle control group. Gabapentin (300 mg/kg p.o.), administered under the same experimental conditions, was used as reference substance. The experiment therefore included 5 groups.
Data were analyzed by comparing treated groups with vehicle control using unpaired Mann-Whitney U tests.

[3] = system: rat morphine withdrawal model; assay: Rat morphine withdrawal model (naloxone-precipitated); format: in vivo; settings: rats, 25 mg/kg PO QD for 7 days
Description: The ability of (S)-AV1013 to reduce/ameliorate withdrawal behavior relative to a control was evaluated in rats. The study was conducted in accordance with the method disclosed by Hutchinson et. al., Brain Behavior and Immunity, V. 23, (2009), p 240-250.
Rats were administered morphine in escalating doses over a five day period to induce dependence (15-22.5 mg/kg/day). (S)-AV1013 (25 mg/kg PO QD) or vehicle (saline) administration was initiated two days prior and continued concomitant with the morphine dosing regimen for a total of 7-days. On day seven all animals were administered naloxone SC to precipitate withdrawal symptoms. Specific withdrawal behaviors were scored over 6×, 10 minute intervals. A total of 15 rats per group were evaluated.

[4] = 10 mg/kg p.o. 60 min before the test
[5] = 25 mg/kg p.o. 60 min before the test

## CC(C)c1nn2ccccc2c1C(=O)[C@H](C)N [(S)-AV1013, (S)-2-amino-1-(2-isopropylpyrazolo[1,5-a]pyridin-3-yl)propan-1-one]
[1]
  plasma levels of the (R) enantiomer after dosing (S) (in vivo racemization): no detectable plasma levels of the corresponding (R) enantiomer
[1]; listed as (S)-enantiomer
  plasma levels of the (R) enantiomer after dosing (S) (in vivo racemization): does not result in detectable levels of the (R)-enantiomer
[2]
  attenuation of mechanical allodynia (50% paw withdrawal threshold): substantially more potent in treating neuropathic pain than the corresponding (R) enantiomer
[2]; listed as (S)-enantiomer
  attenuation of mechanical allodynia (50% paw withdrawal threshold): more potent in vivo than is the (R)-enantiomer
Formalin paw model; [4]
  % Change from Control: −16%
  Licking Score (Mean +/− SEM): 13.1 +/− 1.5
Formalin paw model; [5]
  % Change from Control: −16%
  Licking Score (Mean +/− SEM): 13.1 +/− 1.8
Formalin paw model; 50 mg/kg p.o. 60 min before the test, 50 mg/kg
  % Change from Control: −45%
Formalin paw model; 50 mg/kg p.o. 60 min before the test, p < 0.01
  Licking Score (Mean +/− SEM): 8.6 +/− 1.4 *
Formalin paw model; single oral dose of 50 mg/kg
  analgesic/anti-inflammatory activity in mouse formalin paw model (late-phase): demonstrated analgesic/anti-inflammatory activity
[3]
  withdrawal behaviors relative to vehicle: reduced withdrawal behaviors; also recorded: reduced withdrawal symptoms relative to those receiving vehicle
